No end group written: not given here.

The subject of one series is A. baumannii (KCTC 2508). Particulars: 1% peptone, 2 × 10^6 CFU/mL, 16 h, 37 °C. Here is the method: (§1) The antimicrobial activities of Pap12 peptides were tested against four standard Gram-negative bacteria (E. coli, Pseudomonas aeruginosa, Acinetobacter baumannii, and Salmonella typhimurium), three standard Gram-positive bacteria (Staphylococcus aureus, Bacillus subtilis, and Staphylococcus epidermidis), and five MDR bacteria (MDREC CCARM 1229, MDRPA CCARM 2002, MDRAB CCARM 12035, MDRST CCARM 8007, and MRSA CCARM 3126) using the microbroth dilution method. The relative antibacterial activities were compared based on geometric means of MICs (GM).
(§2) Escherichia coli (KCTC 1682), Pseudomonas aeruginosa (KCTC 2004), Acinetobacter baumannii (KCTC 2508), Salmonella typhimurium (KCTC 1926), Bacillus subtilis (KCTC 3068), Staphylococcus aureus (KCTC 1621), and Staphylococcus epidermidis (KCTC 1917) were purchased from the Korean Collection for Type Cultures, Korea Research Institute of Bioscience & Biotechnology (Taejon, Korea). Clinical isolates of MDR E. coli (MDREC; CCARM 1229), P. aeruginosa (MDRPA; CCARM 2002), A. baumannii (MDRAB; CCARM 12035), S. typhimurium (MDRST; CCARM 8007), and S. aureus (MDRSA; CCARM 3126) were supplied by the Culture Collection of Antibiotic-Resistant Microbe (CCARM) at Seoul Women’s University in Korea. The E. coli K1 strain RS218 (O18:K1:H7) was kindly provided by Dr. Jang-Won Yoon of Kangwon National University (Gangwon-do, Korea).
(§3) Peptides were treated with 2 × 10^6 CFU/mL bacterial suspensions in 1% peptone media for 16 h at 37 °C.

A further series concerns B. subtilis (KCTC 3068). Conditions: 1% peptone, 2 × 10^6 CFU/mL, 16 h, 37 °C. The method, then: as §1, §2, §3
A further series concerns E. coli (KCTC 1682). Particulars: 1% peptone, 2 × 10^6 CFU/mL, 16 h, 37 °C. Here is the method: as §1, §2, §3
Series [1] has as its system MDRAB 12035 (MDR A. baumannii CCARM 12035). Particulars: 1% peptone, 2 × 10^6 CFU/mL, 16 h, 37 °C. Here is the method: as §1, §2, §3
Series [2] deals with MDREC 1229 (MDR E. coli CCARM 1229). Particulars: 1% peptone, 2 × 10^6 CFU/mL, 16 h, 37 °C. The method, then:
as §1, §2, §3

The subject of series [3] is MDRPA 2002 (MDR P. aeruginosa CCARM 2002). Conditions: 1% peptone, 2 × 10^6 CFU/mL, 16 h, 37 °C. Here is the method:
as §1, §2, §3

Series [4] concerns MDRST 8007 (MDR S. typhimurium CCARM 8007). Particulars: 1% peptone, 2 × 10^6 CFU/mL, 16 h, 37 °C. The method, then: as §1, §2, §3
In a further series the test system is MRSA 3126 (CCARM 3126). Particulars: 1% peptone, 2 × 10^6 CFU/mL, 16 h, 37 °C. Here is the method:
as §1, §2, §3

Series [5] has as its system P. aeruginosa (KCTC 2004). Particulars: 1% peptone, 2 × 10^6 CFU/mL, 16 h, 37 °C. The method, then:
as §1, §2, §3

The test system of the next series is S. aureus (KCTC 1621). Conditions: 1% peptone, 2 × 10^6 CFU/mL, 16 h, 37 °C. Here is the method:
as §1, §2, §3

Series [6] relates to S. epidermidis (KCTC 1917). Conditions: 1% peptone, 2 × 10^6 CFU/mL, 16 h, 37 °C. Here is the method: as §1, §2, §3
Series [7] concerns S. typhimurium (KCTC 1926). Particulars: 1% peptone, 2 × 10^6 CFU/mL, 16 h, 37 °C. The method, then: as §1, §2, §3
Another series concerns Gram-negative bacteria. Conditions: eight Gram-negative strains of Table 2. Here is the method:
as §1
(§4) The therapeutic index (TI) was calculated (Table 2) using HC10, the peptide concentration required to induce 10% hemolysis.
as §3

The test system of a further series is Gram-positive bacteria. Particulars: four Gram-positive strains of Table 2. The method, then:
as §1, §4, §3

Series [8] has as its system human red blood cells (hRBCs). The experiment in a line: Hemolysis of human red blood cells. Here is the method: as §4
The toxicity of peptides to human red blood cells (hRBCs) was determined by measuring the peptide-induced release of haem, and percent hemolysis was calculated as described previously. The peptide-induced cytotoxicity of mouse RAW 264.7 macrophages, human keratinocyte HaCaT cells, and HEK-293 cells were determined by 3-(4,5-dimethylthiazol-2-yl)-2,5-diphenyltetrazolium bromide (MTT) assays as previously described.

With RWKIFKKVVKKG-NH2 [Pap12-3], the “Minimal inhibitory concentration (MIC), A. baumannii” value in the series on A. baumannii (KCTC 2508) was determined as 16 µM. Also, in the series on B. subtilis (KCTC 3068), the “Minimal inhibitory concentration (MIC), B. subtilis” value turned out to be 16 µM. The “Minimal inhibitory concentration (MIC), E. coli” value with E. coli (KCTC 1682) worked out at 8 µM. In addition, the “Minimal inhibitory concentration (MIC), MDRAB 12035” value in series [1] was 16 µM. Further, the “Minimal inhibitory concentration (MIC), MDREC 1229” value in [2] was 16 µM. Moreover, in series [3], the “Minimal inhibitory concentration (MIC), MDRPA 2002” value is 32 µM. The “Minimal inhibitory concentration (MIC), MDRST 8007” value in series [4] was 16 µM. Further, the “Minimal inhibitory concentration (MIC), MRSA 3126” value in the series with MRSA 3126 (CCARM 3126) amounted to 16 µM. Also, the “Minimal inhibitory concentration (MIC), P. aeruginosa” value in series [5] was found to be 8 µM. Further, the “Minimal inhibitory concentration (MIC), S. aureus” value in the series with S. aureus (KCTC 1621) came to 8 µM. Moreover, in series [6], the “Minimal inhibitory concentration (MIC), S. epidermidis” value turned out to be 16 µM. Also, the “Minimal inhibitory concentration (MIC), S. typhimurium” value in series [7] turned out to be 16 µM. Further, in the series with Gram-negative bacteria, the “GM, geometric mean of MICs, Gram-negative bacteria” value (“GM … Gram-negative bacteria” below) was 16 µM. The “GM, geometric mean of MICs, Gram-positive bacteria” value (“GM … Gram-positive bacteria” for short) with Gram-positive bacteria amounted to 14 µM. For the same substance, the “HC10, peptide concentration resulting in 10% hemolysis of fresh human erythrocytes” value in [8] was determined as 200 µM.
In the case of RWKIFKKAAKKA-NH2 [Pap12-4], in the series with A. baumannii (KCTC 2508), the “Minimal inhibitory concentration (MIC), A. baumannii” value stood at 32 µM. For the same substance, the “Minimal inhibitory concentration (MIC), B. subtilis” value in the series with B. subtilis (KCTC 3068) came to 16 µM. Further, the “Minimal inhibitory concentration (MIC), E. coli” value in the series with E. coli (KCTC 1682) was 8 µM. Also, the “Minimal inhibitory concentration (MIC), MDRAB 12035” value in series [1] was found to be 16 µM. Further, the “Minimal inhibitory concentration (MIC), MDREC 1229” value in [2] is 32 µM. Also, the “Minimal inhibitory concentration (MIC), MDRPA 2002” value in series [3] was 32 µM. For the same substance, the “Minimal inhibitory concentration (MIC), MDRST 8007” value in series [4] was 16 µM. The “Minimal inhibitory concentration (MIC), MRSA 3126” value in the series on MRSA 3126 (CCARM 3126) came out at 32 µM. Moreover, the “Minimal inhibitory concentration (MIC), P. aeruginosa” value in series [5] was determined as 8 µM. Further, in the series on S. aureus (KCTC 1621), the “Minimal inhibitory concentration (MIC), S. aureus” value was 8 µM. Moreover, the “Minimal inhibitory concentration (MIC), S. epidermidis” value in series [6] was 32 µM. In addition, in series [7], the “Minimal inhibitory concentration (MIC), S. typhimurium” value is 32 µM. Moreover, in the series with Gram-negative bacteria, the “GM … Gram-negative bacteria” value was found to be 22 µM. The “GM … Gram-positive bacteria” value with Gram-positive bacteria was 22 µM. Further, the “HC10, peptide concentration resulting in 10% hemolysis of fresh human erythrocytes” value in series [8] was 200 µM.
As to RWKIFKKVVKKA-NH2 [Pap12-5], the “Minimal inhibitory concentration (MIC), A. baumannii” value with A. baumannii (KCTC 2508) was 8 µM. The “Minimal inhibitory concentration (MIC), B. subtilis” value in the series on B. subtilis (KCTC 3068) turned out to be 16 µM. Further, in the series with E. coli (KCTC 1682), the “Minimal inhibitory concentration (MIC), E. coli” value was 8 µM. Also, the “Minimal inhibitory concentration (MIC), MDRAB 12035” value in [1] worked out at 8 µM. Besides, the “Minimal inhibitory concentration (MIC), MDREC 1229” value in [2] came to 16 µM. For the same substance, in series [3], the “Minimal inhibitory concentration (MIC), MDRPA 2002” value is 16 µM. In series [4], the “Minimal inhibitory concentration (MIC), MDRST 8007” value was found to be 16 µM. Also, the “Minimal inhibitory concentration (MIC), MRSA 3126” value in the series with MRSA 3126 (CCARM 3126) was 16 µM. Further, the “Minimal inhibitory concentration (MIC), P. aeruginosa” value in [5] is 8 µM. The “Minimal inhibitory concentration (MIC), S. aureus” value in the series with S. aureus (KCTC 1621) came to 8 µM. Besides, the “Minimal inhibitory concentration (MIC), S. epidermidis” value in series [6] was 16 µM. Besides, the “Minimal inhibitory concentration (MIC), S. typhimurium” value in [7] came out at 32 µM. In the series with Gram-negative bacteria, the “GM … Gram-negative bacteria” value stood at 14 µM. Further, the “GM … Gram-positive bacteria” value in the series on Gram-positive bacteria was 14 µM. Also, the “HC10, peptide concentration resulting in 10% hemolysis of fresh human erythrocytes” value in series [8] turned out to be 200 µM.
Turning to RWKIFKKAAKKG-NH2 [Pap12-2], in the series on A. baumannii (KCTC 2508), the “Minimal inhibitory concentration (MIC), A. baumannii” value was 32 µM. The “Minimal inhibitory concentration (MIC), B. subtilis” value in the series on B. subtilis (KCTC 3068) was found to be 16 µM. For the same substance, the “Minimal inhibitory concentration (MIC), E. coli” value in the series on E. coli (KCTC 1682) came to 8 µM. The “Minimal inhibitory concentration (MIC), MDRAB 12035” value in series [1] was determined as 16 µM. Further, the “Minimal inhibitory concentration (MIC), MDREC 1229” value in series [2] turned out to be 32 µM. The “Minimal inhibitory concentration (MIC), MDRPA 2002” value in series [3] was determined as 16 µM. The “Minimal inhibitory concentration (MIC), MDRST 8007” value in series [4] was 16 µM. In addition, the “Minimal inhibitory concentration (MIC), MRSA 3126” value in the series on MRSA 3126 (CCARM 3126) amounted to 16 µM. Besides, the “Minimal inhibitory concentration (MIC), P. aeruginosa” value in [5] came out at 8 µM. Also, in the series with S. aureus (KCTC 1621), the “Minimal inhibitory concentration (MIC), S. aureus” value came out at 16 µM. Further, the “Minimal inhibitory concentration (MIC), S. epidermidis” value in series [6] amounted to 32 µM. The “Minimal inhibitory concentration (MIC), S. typhimurium” value in [7] was found to be 16 µM. Further, the “GM … Gram-negative bacteria” value in the series on Gram-negative bacteria was determined as 18 µM. The “GM … Gram-positive bacteria” value in the series with Gram-positive bacteria amounted to 20 µM. Further, the “HC10, peptide concentration resulting in 10% hemolysis of fresh human erythrocytes” value in series [8] is 200 µM.

Source of the values: publication PMC6405874, “Development of a novel short 12-meric papiliocin-derived peptide that is effective against Gram-negative sepsis” (Scientific Reports, 2019).
